PMC8803441, “Identification of 20(S)-Ginsenoside Rh2 as a Potential EGFR Tyrosine Kinase Inhibitor” (Oxidative Medicine and Cellular Longevity, 2022)

Target: T1, Epidermal growth factor receptor (EGFR) kinase (Homo sapiens, UniProt P00533)
T1 construct: EGFR protein (GST-tagged)
Assay: HTRF KinEASE-TK kinase assay with GST-tagged EGFR
Format: biochemical

T1 sequence (P00533 25-1210): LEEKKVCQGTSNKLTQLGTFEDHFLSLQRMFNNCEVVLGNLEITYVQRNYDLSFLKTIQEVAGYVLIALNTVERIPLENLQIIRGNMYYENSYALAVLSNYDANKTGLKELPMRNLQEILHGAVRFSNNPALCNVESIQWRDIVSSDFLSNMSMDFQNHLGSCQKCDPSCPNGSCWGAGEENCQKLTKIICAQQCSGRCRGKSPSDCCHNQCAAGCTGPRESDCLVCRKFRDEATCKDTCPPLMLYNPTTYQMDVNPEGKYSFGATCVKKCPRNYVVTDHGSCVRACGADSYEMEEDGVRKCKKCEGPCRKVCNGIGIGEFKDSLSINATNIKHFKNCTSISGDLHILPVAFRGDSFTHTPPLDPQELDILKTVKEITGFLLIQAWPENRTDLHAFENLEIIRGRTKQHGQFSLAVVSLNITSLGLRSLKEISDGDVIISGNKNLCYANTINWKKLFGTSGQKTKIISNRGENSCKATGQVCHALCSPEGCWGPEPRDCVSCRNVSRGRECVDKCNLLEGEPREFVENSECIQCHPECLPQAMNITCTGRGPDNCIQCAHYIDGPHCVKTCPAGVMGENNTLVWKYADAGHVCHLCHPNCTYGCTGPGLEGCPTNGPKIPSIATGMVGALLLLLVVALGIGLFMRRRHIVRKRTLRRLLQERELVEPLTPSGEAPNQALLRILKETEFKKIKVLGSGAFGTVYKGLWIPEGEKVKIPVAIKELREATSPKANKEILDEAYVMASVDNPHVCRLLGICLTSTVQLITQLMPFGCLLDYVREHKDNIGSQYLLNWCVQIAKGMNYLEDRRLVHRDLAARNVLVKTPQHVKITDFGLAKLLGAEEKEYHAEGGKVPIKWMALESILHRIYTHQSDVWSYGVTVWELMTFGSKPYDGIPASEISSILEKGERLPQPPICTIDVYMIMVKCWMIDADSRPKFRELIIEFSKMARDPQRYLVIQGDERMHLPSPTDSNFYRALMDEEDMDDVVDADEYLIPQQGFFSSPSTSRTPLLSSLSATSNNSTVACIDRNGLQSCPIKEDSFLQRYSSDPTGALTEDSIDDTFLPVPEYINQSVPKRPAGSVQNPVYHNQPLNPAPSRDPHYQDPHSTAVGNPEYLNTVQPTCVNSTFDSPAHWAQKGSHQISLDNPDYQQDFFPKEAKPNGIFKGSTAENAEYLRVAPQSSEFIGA

**Q.** Which IC50 does the source give for CC(C)=CCC[C@](C)(O)[C@H]1CC[C@]2(C)[C@@H]1[C@H](O)C[C@@H]1[C@@]3(C)CC[C@H](O[C@@H]4O[C@H](CO)[C@@H](O)[C@H](O)[C@H]4O)C(C)(C)[C@@H]3CC[C@]12C [20(S)-ginsenoside Rh2] here?
**A.** 2780 ± 160 nM
